PMC6514978, “Synthesis, Antibacterial Activities, Mode of Action and Acute Toxicity Studies of New Oxazolidinone-Fluoroquinolone Hybrids” (Molecules, 2019)
Values after ≈ are worked out from the molar mass of the structure shown.

How the values were obtained:
E. faecalis (ATCC29212) = assay: MIC, broth microdilution (CLSI), standard strain; type: cell-based; details: Enterococcus faecalis; E. faecalis (ATCC29212); read-out: MIC
Excerpt: (§1) 6 standard strains and 3 clinical isolates were used to the preliminary evaluation of in vitro antibacterial activities of oxazolidinone-fluoroquinolone hybrids. For the further evaluation of hybrids OBP-4 and OBP-5, 263 clinical isolates including S. aureus (46), S. haemolyticus(32), S. epidermidis (10), E. faecalis (72), E. faecium (47), S. pneumoniae (13), H. parasuis (34), S. suis (9), and 8 resistant strains including MRSA, MRSE, CIP-resistant S. aureus and S. haemolyticus, VAN and quinolone-resistant S. pneumoniae, LZD-resistant E. faecalis, LZD/VAN and quinolone-resistant E. faecium were collected and tested.
(§2) Susceptibility testing of oxazolidinone-fluoroquinolone hybrids against various bacteria was performed by the broth microdilution method as outlined by the Clinical and Laboratory Standards Institute (CLSI). Three types of media, including cation-adjusted Mueller Hinton broth, Haemophilus Test Medium and cation-adjusted Mueller Hinton broth that contained 3%–5% lysed horse blood, were used to culture the corresponding bacteria. All compounds including comparator drugs were dissolved in an appropriate solvent at a concentration of 2.048 mg/mL and then serially diluted two-fold to provide the required concentrations. A final inoculum of 5 × 10^5 CFU/mL was used and plates were read after incubation for 16–24 h at 35 °C. […] Standard quality control strains (ATCC) were included throughout. Each determination was repeated in triplicate.

[1] = test system: P. Aeruginosa (ATCC27853); assay: MIC, broth microdilution (CLSI), standard strain; type: cell-based; details: Pseudomonas aeruginosa; P. Aeruginosa (ATCC27853); read-out: MIC
Excerpt: as §1, §2

[2] = test system: S. pneumoniae (ATCC49619); assay: MIC, broth microdilution (CLSI), standard strain; type: cell-based; details: Streptococcus pneumoniae
Excerpt: as §1, §2

[3] = test system: H. influenzae (ATCC49247); assay: MIC, broth microdilution (CLSI), standard strain; type: cell-based; details: Haemophilus influenzae
Excerpt: as §1, §2

S. aureus (ATCC29213) = assay: MIC, broth microdilution (CLSI), standard strain; type: cell-based; details: Staphylococcus aureus
Excerpt: as §1, §2

E. coli (ATCC25922) = assay: MIC, broth microdilution (CLSI), standard strain; type: cell-based; details: Escherichia coli; E. coli (ATCC25922); read-out: MIC
Excerpt: as §1, §2

VRE (13B330) = assay: MIC, broth microdilution (CLSI), clinical isolate; type: cell-based, vancomycin-resistant enterococcus; details: Enterococcus
Excerpt: as §1, §2

MRSA (13B262) = assay: MIC, broth microdilution (CLSI), clinical isolate; type: cell-based; details: Staphylococcus aureus
Excerpt: as §1, §2

[4] = test system: S. agalactiae^R (13B317), levofloxacin-resistant S. agalactiae; assay: MIC, broth microdilution (CLSI), clinical isolate; type: cell-based; details: Streptococcus agalactiae; levofloxacin-resistant S. agalactiae (13B317)
Excerpt: as §1, §2

[5] = test system: S. haemolyticus (32) clinical isolates; assay: Susceptibility of clinical isolates (MIC); type: cell-based, Staphylococcus haemolyticus
Procedure: as §2, with “All compounds including comparator drugs were dissolved in an appropriate solvent at a concentration of 2.048 mg/mL and then serially diluted two-fold to provide the required concentrations.” left out

[6] = test system: CIP-resistant S. haemolyticus; assay: MIC against drug-resistant strain; type: cell-based; details: Staphylococcus haemolyticus
Procedure: (§3) 6 standard strains and 3 clinical isolates were used to the preliminary evaluation of in vitro antibacterial activities of oxazolidinone-fluoroquinolone hybrids.
as §2, with “All compounds including comparator drugs were dissolved in an appropriate solvent at a concentration of 2.048 mg/mL and then serially diluted two-fold to provide the required concentrations.” left out

[7] = test system: LZD and quinolone-resistant E. faecium; assay: MIC against drug-resistant strain; type: cell-based; details: Enterococcus faecium
Procedure: as §3
as §2, with “All compounds including comparator drugs were dissolved in an appropriate solvent at a concentration of 2.048 mg/mL and then serially diluted two-fold to provide the required concentrations.” left out

[8] = test system: VAN and quinolone-resistant S. pneumoniae; assay: MIC against drug-resistant strain; type: cell-based; details: Streptococcus pneumoniae
Procedure: as §3
as §2, with “All compounds including comparator drugs were dissolved in an appropriate solvent at a concentration of 2.048 mg/mL and then serially diluted two-fold to provide the required concentrations.” left out

MRSA = assay: MIC against drug-resistant strain; type: cell-based; details: Staphylococcus aureus
Procedure: as §3
as §2, with “All compounds including comparator drugs were dissolved in an appropriate solvent at a concentration of 2.048 mg/mL and then serially diluted two-fold to provide the required concentrations.” left out

CIP-resistant S. aureus = assay: MIC against drug-resistant strain; type: cell-based; details: Staphylococcus aureus
Procedure: as §3
as §2, with “All compounds including comparator drugs were dissolved in an appropriate solvent at a concentration of 2.048 mg/mL and then serially diluted two-fold to provide the required concentrations.” left out

[9] = test system: VAN and quinolone-resistant E. faecium; assay: MIC against drug-resistant strain; type: cell-based; details: Enterococcus faecium
Procedure: as §3
as §2, with “All compounds including comparator drugs were dissolved in an appropriate solvent at a concentration of 2.048 mg/mL and then serially diluted two-fold to provide the required concentrations.” left out

[10] = test system: S. epidermidis (10) clinical isolates; assay: Susceptibility of clinical isolates (MIC); type: cell-based, Staphylococcus epidermidis
Procedure: as §2, with “All compounds including comparator drugs were dissolved in an appropriate solvent at a concentration of 2.048 mg/mL and then serially diluted two-fold to provide the required concentrations.” left out

[11] = test system: LZD-resistant E. faecalis; assay: microbe, parasite or virus in culture; type: cell-based; details: Enterococcus faecalis
Procedure: as §3
as §2, with “All compounds including comparator drugs were dissolved in an appropriate solvent at a concentration of 2.048 mg/mL and then serially diluted two-fold to provide the required concentrations.” left out

[12] = test system: S. suis (9) clinical isolates; assay: Susceptibility of clinical isolates (MIC); type: cell-based, Streptococcus suis; details: Streptococcus suis
Procedure: as §2, with “All compounds including comparator drugs were dissolved in an appropriate solvent at a concentration of 2.048 mg/mL and then serially diluted two-fold to provide the required concentrations.” left out

[13] = test system: S. aureus (46) clinical isolates; assay: Susceptibility of clinical isolates (MIC); type: cell-based, Staphylococcus aureus
Procedure: as §2, with “All compounds including comparator drugs were dissolved in an appropriate solvent at a concentration of 2.048 mg/mL and then serially diluted two-fold to provide the required concentrations.” left out

[14] = test system: H. parasuis (34) clinical isolates; assay: Susceptibility of clinical isolates (MIC); type: cell-based, Haemophilus parasuis; details: Glaesserella parasuis
Procedure: as §2, with “All compounds including comparator drugs were dissolved in an appropriate solvent at a concentration of 2.048 mg/mL and then serially diluted two-fold to provide the required concentrations.” left out

[15] = test system: S. pneumoniae (13) clinical isolates; assay: Susceptibility of clinical isolates (MIC); type: cell-based, Streptococcus pneumoniae
Procedure: as §2, with “All compounds including comparator drugs were dissolved in an appropriate solvent at a concentration of 2.048 mg/mL and then serially diluted two-fold to provide the required concentrations.” left out

MRSE = assay: MIC against drug-resistant strain; type: cell-based, S. epidermidis; details: Staphylococcus epidermidis
Procedure: as §3
as §2, with “All compounds including comparator drugs were dissolved in an appropriate solvent at a concentration of 2.048 mg/mL and then serially diluted two-fold to provide the required concentrations.” left out

[16] = test system: E. faecium (47) clinical isolates; assay: Susceptibility of clinical isolates (MIC); type: cell-based, Enterococcus faecium
Procedure: as §2, with “All compounds including comparator drugs were dissolved in an appropriate solvent at a concentration of 2.048 mg/mL and then serially diluted two-fold to provide the required concentrations.” left out

C[C@H]1COc2c(N3CCC(O)(COc4ccc(N5C[C@H](CO)OC5=O)cc4F)CC3)c(F)c(N)c3c(=O)c(C(=O)O)cn1c23 [OBP-3]
MIC (E. faecalis (ATCC29212)): 1 µg/mL (≈ 1.62 µM) | MIC [1]: 128 µg/mL (≈ 208 µM) | MIC [2]: 0.5 µg/mL (≈ 0.811 µM) | MIC [3]: 2 µg/mL (≈ 3.24 µM) | MIC (S. aureus (ATCC29213)): 2 µg/mL (≈ 3.24 µM) | MIC (E. coli (ATCC25922)): 64 µg/mL (≈ 104 µM) | MIC (VRE (13B330)): 2 µg/mL (≈ 3.24 µM) | MIC (MRSA (13B262)): 2 µg/mL (≈ 3.24 µM) | MIC [4]: 0.5 µg/mL (≈ 0.811 µM)

CN1COc2c(N3CC4C(C3)C4Nc3ccc(N4C[C@H](CO)OC4=O)cc3F)c(F)cc3c(=O)c(C(=O)O)cn1c23 (some centres unmarked) [OBP-6]
MIC (E. faecalis (ATCC29212)): 4 µg/mL (≈ 7.02 µM) | MIC [1]: 16 µg/mL (≈ 28.1 µM) | MIC [2]: 0.5 µg/mL (≈ 0.878 µM) | MIC [3]: 0.016 µg/mL (≈ 0.0281 µM) | MIC (S. aureus (ATCC29213)): 0.062 µg/mL (≈ 0.109 µM) | MIC (E. coli (ATCC25922)): 1 µg/mL (≈ 1.76 µM) | MIC (VRE (13B330)): 64 µg/mL (≈ 112 µM) | MIC (MRSA (13B262)): 64 µg/mL (≈ 112 µM) | MIC [4]: 2 µg/mL (≈ 3.51 µM)

O=C(O)c1cn(C2CC2)c2cc(N3CC4C(C3)C4Nc3ccc(N4C[C@H](CO)OC4=O)cc3F)c(F)cc2c1=O (some centres unmarked) [OBP-7]
MIC (E. faecalis (ATCC29212)): 1 µg/mL (≈ 1.81 µM) | MIC [1]: 64 µg/mL (≈ 116 µM) | MIC [2]: 2 µg/mL (≈ 3.62 µM) | MIC [3]: 0.031 µg/mL (≈ 0.0561 µM) | MIC (S. aureus (ATCC29213)): 0.25 µg/mL (≈ 0.452 µM) | MIC (E. coli (ATCC25922)): 0.5 µg/mL (≈ 0.905 µM) | MIC (VRE (13B330)): 128 µg/mL (≈ 232 µM) | MIC (MRSA (13B262)): 128 µg/mL (≈ 232 µM) | MIC [4]: 4 µg/mL (≈ 7.24 µM)

CN[C@H](CC(C)C)C(=O)N[C@H]1C(=O)N[C@@H](CC(N)=O)C(=O)N[C@H]2C(=O)N[C@H]3C(=O)N[C@H](C(=O)N[C@H](C(=O)O)c4cc(O)cc(O)c4-c4cc3ccc4O)[C@H](O)c3ccc(c(Cl)c3)Oc3cc2cc(c3O[C@@H]2O[C@H](CO)[C@@H](O)[C@H](O)[C@H]2O[C@H]2C[C@](C)(N)[C@H](O)[C@H](C)O2)Oc2ccc(cc2Cl)[C@H]1O [VAN, vancomycin]
CLSI %S (susceptible) ([5]; S. haemolyticus clinical isolates, CLSI criteria): 96.2/- % | MIC50 ([5]; Staphylococcus haemolyticus): 0.5 µg/mL (≈ 0.345 µM) | MIC90 ([5]; Staphylococcus haemolyticus): 2 µg/mL (≈ 1.38 µM) | MIC ([5]; Staphylococcus haemolyticus, read-out: MIC Range): 0.0625 to 4 µg/mL (≈ 0.0431 to 2.76 µM) | MIC [6]: 2 µg/mL (≈ 1.38 µM) | MIC [7]: 4 µg/mL (≈ 2.76 µM) | MIC [8]: > 32 µg/mL | MIC (MRSA): 1 µg/mL (≈ 0.69 µM) | MIC (CIP-resistant S. aureus): 0.25 µg/mL (≈ 0.173 µM) | MIC [9]: 16 µg/mL (≈ 11 µM) | CLSI %S (susceptible) ([10]; S. epidermidis clinical isolates, CLSI criteria): 100.0/- % | MIC50 ([10]; Staphylococcus epidermidis): 1 µg/mL (≈ 0.69 µM) | MIC90 ([10]; Staphylococcus epidermidis): 2 µg/mL (≈ 1.38 µM) | MIC ([10]; Staphylococcus epidermidis, read-out: MIC Range): 1 to 2 µg/mL (≈ 0.69 to 1.38 µM) | MIC [11]: 2 µg/mL (≈ 1.38 µM) | MIC50 [12]: 0.25 µg/mL (≈ 0.173 µM) | MIC90 [12]: 2 µg/mL (≈ 1.38 µM) | MIC ([12]; read-out: MIC Range): 0.125 to 2 µg/mL (≈ 0.0863 to 1.38 µM) | CLSI %S (susceptible) ([13]; S. aureus clinical isolates, CLSI criteria): 100.0/- % | MIC50 ([13]; Staphylococcus aureus): 0.5 µg/mL (≈ 0.345 µM) | MIC90 ([13]; Staphylococcus aureus): 0.5 µg/mL (≈ 0.345 µM) | MIC ([13]; Staphylococcus aureus, read-out: MIC Range): 0.25 to 0.5 µg/mL (≈ 0.173 to 0.345 µM) | MIC50 [14]: 8 µg/mL (≈ 5.52 µM) | MIC90 [14]: > 32 µg/mL | CLSI %S (susceptible) ([15]; S. pneumoniae clinical isolates, CLSI criteria): 53.8/- % | MIC50 ([15]; Streptococcus pneumoniae): 1 µg/mL (≈ 0.69 µM) | MIC90 ([15]; Streptococcus pneumoniae): 32 µg/mL (≈ 22.1 µM) | MIC (MRSE): 1 µg/mL (≈ 0.69 µM) | CLSI %S (susceptible) ([16]; E. faecium clinical isolates, CLSI criteria): 100.0/- % | MIC Range ([16]; E. faecium, 47 clinical isolates): 0.5 to 4 µg/mL | MIC50 ([16]; Enterococcus faecium): 2 µg/mL (≈ 1.38 µM) | MIC90 ([16]; Enterococcus faecium): 4 µg/mL (≈ 2.76 µM)
